We go through four compounds from PMC12301034, “Design and Synthesis of Boronic Chalcones with Dual Anticancer and Anti-Inflammatory Activity” (Molecules, 2025).

For the first data set, the system named is HCT116 p53^+/+ cells. Nature of the data set: SRB cytotoxicity assay on HCT116 p53+/+ cells. It counts as cell-based, human. The settings on record: Homo sapiens, HCT-116, 48 h of treatment. The source says: (§1) The SCC-25 (ATCC® CRL-1628™), Detroit-562 (ATCC® CCL-138™), and THP-1 (ATCC® TIB-202™) cells were purchased from Rio de Janeiro Cell Bank (Duque de Caxias, Brazil), and NOK-si was kindly provided by Prof. Carlos Rossa from the School of Dentistry—UNESP. All the cells were cultivated according to standard conditions. Human colorectal adenocarcinoma HCT116 cell lines (ATCC® CCL-247™) expressing p53 and its p53-null isogenic derivative (HCT116 p53^−/−) were provided by B. Vogelstein (The Johns Hopkins Kimmel Cancer Center, Baltimore, MD, USA).
(§2) HCT p53^+/+ and HCT p53^−/− cell lines were seeded in 96-well plates, with a concentration of 5000 cells/well, and allowed to adhere overnight. Afterwards, they were treated with serial dilutions of the compounds for an additional 48 h (compounds were prepared at 30 mM, in DMSO, and tested with a starting concentration of 50μM and 15 μM). Cells passed then through a series of essential steps (fixation with 10% trichloroacetic acid, for 1 h at 4 °C; staining with 0.4% sulforhodamine B (SRB); wash with 1% acetic acid; and solubilization with 10 mM Tris-Base); subsequently, absorbance was measured at 510 nm in a microplate reader (Biotek Instruments Inc., Synergy, MX, USA). IC50 values were determined using GraphPad Prism software, Version 7.0 (La Jolla, CA, USA).
(Sulforhodamine B stains cellular protein and so reports cell mass.)
With `O=C(/C=C/c1cccc(B(O)O)c1)c1ccccc1` [Compound 2, (E)-(3-(3-oxo-3-phenylprop-1-en-1-yl)phenyl)boronic acid], the IC50 is 4.4 ± 0.53 µM.
On the same count and under the same terms, as for `O=C(/C=C/c1cccc(B(O)O)c1)c1cccc(O)c1` [Compound 4, (E)-(3-(3-(3-hydroxyphenyl)-3-oxoprop-1-en-1-yl)phenyl)boronic acid], the figure is 2.33 ± 0.2 µM.
`COc1cccc(C(=O)/C=C/c2ccc(B(O)O)cc2)c1` [Compound 11, (E)-(4-(3-(3-methoxyphenyl)-3-oxoprop-1-en-1-yl)phenyl)boronic acid]: the IC50 stood at 3.96 ± 0.55 µM.

Test system in a further data set: not given
Experiment: not given
The settings on record: reference compounds for calibration curve; cited from earlier work.
Take `Clc1ccc(C(c2ccc(Cl)cc2)C(Cl)(Cl)Cl)cc1` [DDT]: the “log P of reference compounds” value was 6.5.

In a further data set the test system is SCC-25 cells. Nature of the data set: MTT cytotoxicity assay on SCC-25 cells. It counts as cell-based, human. The settings on record: Homo sapiens, SCC-25; MTT, 24 h incubation, mean SEM of three experiments.
From the text: as §1
(§3) Cells (NOK-si, SCC-25, and Detroit-562) were grown in a DMEM medium (Dulbecco’s Modified Eagle Medium), supplemented according to the needs of each lineage, as recommended by its cell banks, with 2 mM L-glutamine, 10% or 20% fetal bovine serum (FBS), 1% antibiotic–antimycotic solution (5 mg/mL penicillin, 5 mg/mL streptomycin, and 10 mg/mL neomycin), 4.5 g/L of glucose, and 3.7 g/L of sodium bicarbonate (NaHCO3). All cell lines were cultured in flasks at 37 °C in 5% carbon dioxide (CO2) and 95% of relative humidity. The assays were conducted between the third- and the seventh-cell passage, with sub-cultures every 3–4 days to maintain exponential growth. The cell viability was checked using the trypan blue dye exclusion assay for all experiments, where over 95% of the cells were viable at the beginning of the tests. NOK-si, SCC-25, and Detroit-562 were initially thawed and cultured in 25 cm^2 cell culture flasks. Cell growth was monitored using a microscope, and the culture medium was changed periodically. Upon reaching confluency, cell dissociation was achieved by adding 5 mL of trypsin (Sigma-Aldrich, St Louis, MO, USA) and incubating the bottles in a CO2 incubator for 10 min. Subsequently, the cells were transferred to 15 mL Falcon tubes and centrifuged at 2000 rpm for 10 min. Cell counting was performed using a Countess II FL automated cell counter (ThermoFischer, Waltham, MA, USA). The cells were seeded at a density of 30,000 cells per well in 96-well plates. The plates were then incubated at 37 °C in 5% CO2 for 24 h. Following this, test compounds were incubated for another 24 h at 10 different concentrations: 50, 25, 12.5, 6.25, 3.12, 1.56, 0.78, 0.39, 0.19, and 0.097 µg/mL. After the specified time, MTT reagent (3 mg/mL) (Sigma-Aldrich, St Louis, MO, USA) dissolved in phenol-free RPMI 1640 was added and incubated for 4 h. The formed MTT crystals were solubilized using 2-propanol P.A. (Sigma-Aldrich, St Louis, MO, USA) with agitation. Absorbance was read at 562 nm using an EZ Read 400 microplate reader (Biochrom, Cambridge, UK) and ADAP 2.0 Biochrom software (version 2.0). IC50 values and graphs were calculated using Excel and Prism software (version 10.4.1). The MTT assay results were evaluated for normality using the Shapiro–Wilk test, followed by one-way ANOVA with Tukey’s post hoc test at a significance level of 5%.
On to `O=C(/C=C/c1cccc(B(O)O)c1)c1ccccc1` [Compound 2, (E)-(3-(3-oxo-3-phenylprop-1-en-1-yl)phenyl)boronic acid], for which the concentration for half-maximal inhibition (IC50) was determined as 134 ± 12.3 µM.
For `O=C(/C=C/c1cccc(B(O)O)c1)c1cccc(O)c1` [Compound 4, (E)-(3-(3-(3-hydroxyphenyl)-3-oxoprop-1-en-1-yl)phenyl)boronic acid], half-maximal inhibition (IC50) required 9.8 ± 1 µM.
On the same count and under the same terms, the figure for `COc1cccc(C(=O)/C=C/c2ccc(B(O)O)cc2)c1` [Compound 11, (E)-(4-(3-(3-methoxyphenyl)-3-oxoprop-1-en-1-yl)phenyl)boronic acid] is 65.9 ± 11 µM.

The data set is the same for the next values; noted with them: selectivity index.
On to `O=C(/C=C/c1cccc(B(O)O)c1)c1ccccc1` [Compound 2, (E)-(3-(3-oxo-3-phenylprop-1-en-1-yl)phenyl)boronic acid], for which the “SI = IC50 NOK-si/IC50 SCC-25” value is given as 1.00.
In the case of `O=C(/C=C/c1cccc(B(O)O)c1)c1cccc(O)c1` [Compound 4, (E)-(3-(3-(3-hydroxyphenyl)-3-oxoprop-1-en-1-yl)phenyl)boronic acid], the “SI = IC50 NOK-si/IC50 SCC-25” value worked out at 1.88.
On the same count and under the same terms, as for `COc1cccc(C(=O)/C=C/c2ccc(B(O)O)cc2)c1` [Compound 11, (E)-(4-(3-(3-methoxyphenyl)-3-oxoprop-1-en-1-yl)phenyl)boronic acid], the figure is 1.46.

Test system in the next data set: not listed separately
Nature of the data set: Partition coefficient (Log P), OECD 117 HPLC method.
Conditions: not given
`O=C(/C=C/c1cccc(B(O)O)c1)c1ccccc1` [Compound 2, (E)-(3-(3-oxo-3-phenylprop-1-en-1-yl)phenyl)boronic acid] registered a chromatographic logP of 2.68.
On the same count and under the same terms, as for `O=C(/C=C/c1cccc(B(O)O)c1)c1cccc(O)c1` [Compound 4, (E)-(3-(3-(3-hydroxyphenyl)-3-oxoprop-1-en-1-yl)phenyl)boronic acid], the figure is 1.81; as for `COc1cccc(C(=O)/C=C/c2ccc(B(O)O)cc2)c1` [Compound 11, (E)-(4-(3-(3-methoxyphenyl)-3-oxoprop-1-en-1-yl)phenyl)boronic acid], 2.81.

Another data set has as its system HCT116 p53^−/− cells. Nature of the data set: SRB cytotoxicity assay on HCT116 p53-/- cells. It counts as cell-based, human. The settings on record: Homo sapiens, HCT-116, 48 h of treatment.
From the text: as §1, §2
`O=C(/C=C/c1cccc(B(O)O)c1)c1ccccc1` [Compound 2, (E)-(3-(3-oxo-3-phenylprop-1-en-1-yl)phenyl)boronic acid]: the half-maximal inhibitory concentration (IC50) is 3.63 ± 0.47 µM.
Still for that read-out and setting: the figure for `O=C(/C=C/c1cccc(B(O)O)c1)c1cccc(O)c1` [Compound 4, (E)-(3-(3-(3-hydroxyphenyl)-3-oxoprop-1-en-1-yl)phenyl)boronic acid] is 2.16 ± 0.25 µM.
The same measure, in the same setting: the figure for `COc1cccc(C(=O)/C=C/c2ccc(B(O)O)cc2)c1` [Compound 11, (E)-(4-(3-(3-methoxyphenyl)-3-oxoprop-1-en-1-yl)phenyl)boronic acid] is 3.8 ± 0.26 µM.

In another data set the test system is Detroit-562 cells. Nature of the data set: MTT cytotoxicity assay on Detroit-562 cells. It counts as cell-based. Particulars: Homo sapiens; MTT, 24 h incubation, Detroit-562 metastatic pharyngeal cancer model.
From the text: as §1
Cells (NOK-si, SCC-25, and Detroit-562) were grown in a DMEM medium (Dulbecco’s Modified Eagle Medium), supplemented according to the needs of each lineage, as recommended by its cell banks, with 2 mM L-glutamine, 10% or 20% fetal bovine serum (FBS), 1% antibiotic–antimycotic solution (5 mg/mL penicillin, 5 mg/mL streptomycin, and 10 mg/mL neomycin), 4.5 g/L of glucose, and 3.7 g/L of sodium bicarbonate (NaHCO3). All cell lines were cultured in flasks at 37 °C in 5% carbon dioxide (CO2) and 95% of relative humidity. The assays were conducted between the third- and the seventh-cell passage, with sub-cultures every 3–4 days to maintain exponential growth. The cell viability was checked using the trypan blue dye exclusion assay for all experiments, where over 95% of the cells were viable at the beginning of the tests. NOK-si, SCC-25, and Detroit-562 were initially thawed and cultured in 25 cm^2 cell culture flasks. Cell growth was monitored using a microscope, and the culture medium was changed periodically. […] Absorbance was read at 562 nm using an EZ Read 400 microplate reader (Biochrom, Cambridge, UK) and ADAP 2.0 Biochrom software (version 2.0). IC50 values and graphs were calculated using Excel and Prism software (version 10.4.1). The MTT assay results were evaluated for normality using the Shapiro–Wilk test, followed by one-way ANOVA with Tukey’s post hoc test at a significance level of 5%.
On to `O=C(/C=C/c1cccc(B(O)O)c1)c1cccc(O)c1` [Compound 4, (E)-(3-(3-(3-hydroxyphenyl)-3-oxoprop-1-en-1-yl)phenyl)boronic acid], for which the IC50 turned out to be 31.6 ± 3.13 µM.

The test system of the next data set is NOK-si cells. Nature of the data set: MTT cytotoxicity assay on NOK-si normal oral keratinocytes. Type of data set: cell-based. The settings on record: Keratinocyte, 24 h incubation, read-out: NOK-si IC50.
From the text: as §1, §3
For the compound `O=C(/C=C/c1cccc(B(O)O)c1)c1ccccc1` [Compound 2, (E)-(3-(3-oxo-3-phenylprop-1-en-1-yl)phenyl)boronic acid], the CC50 stood at 133 ± 3.25 µM.
Same read-out and setting: as for `O=C(/C=C/c1cccc(B(O)O)c1)c1cccc(O)c1` [Compound 4, (E)-(3-(3-(3-hydroxyphenyl)-3-oxoprop-1-en-1-yl)phenyl)boronic acid], the figure is 18.5 ± 4.43 µM.
On the same count and under the same terms, as for `COc1cccc(C(=O)/C=C/c2ccc(B(O)O)cc2)c1` [Compound 11, (E)-(4-(3-(3-methoxyphenyl)-3-oxoprop-1-en-1-yl)phenyl)boronic acid], the figure is 96.2 ± 21.3 µM.

For orientation: IC50 means the concentration that inhibits the measured activity by half. In general, chromatographic logP refers to lipophilicity estimated from chromatographic retention. High values mean a more lipophilic compound, low ones a more hydrophilic compound.
